Assays:
[1] = Time-course of generation of ClO2 after 1:1 mixing of NaClO2 solution and oxidizing agent solution, change in absorption at 360 nm; settings: from NaClO2 in the presence of the oxidizing agent
Source text: The pH of the resulting composition should be at or below about 7, but above the pKa of chlorous acid. It is known that ClO2 is generated from NaClO2 at pH values at or below about 7 in the absence of an oxidizing agent such as […]. However, the generation is quite slow (on the order of days and months). In the presence of an oxidizing agent such as […] or tannic acid, under the conditions described above, therapeutically effective levels of ClO2 begin to be generated in seconds, as shown below in Tables 1 and 2. Increasing the concentration of the oxidizing agent by weight will cause a more rapid generation of ClO2.

[2] = standard temperature and pressure; cited from earlier work
[3] = same solution as H2O2; cited from earlier work

Row | Structure (SMILES) | time in which therapeutically effective levels of ClO2 begin to be generated [1] | solubility in water [2] [g/0.35 mL water] | stability in the presence of H2O2 [3]
1 | O=C1O[C@H]([C@@H](O)CO)C(O)=C1O [ascorbic acid] | in seconds |  | 
2 | O=C(OC[C@H]1O[C@@H](OC(=O)c2cc(O)c(O)c(OC(=O)c3cc(O)c(O)c(O)c3)c2)[C@H](OC(=O)c2cc(O)c(O)c(OC(=O)c3cc(O)c(O)c(O)c3)c2)[C@@H](OC(=O)c2cc(O)c(O)c(OC(=O)c3cc(O)c(O)c(O)c3)c2)[C@@H]1OC(=O)c1cc(O)c(O)c(OC(=O)c2cc(O)c(O)c(O)c2)c1)c1cc(O)c(O)c(OC(=O)c2cc(O)c(O)c(O)c2)c1 [tannic acid] | in seconds | 1 | 
3 | O=S(=O)([O-])OOS(=O)(=O)[O-].[Na+].[Na+] [sodium persulfate] |  |  | degrades very quickly

Reference: patent publication US20060045855A1, “Oral composition for reducing plaque and microbial infections and whitening teeth” (priority 2004, published 2006)
